Reference: patent publication US20260224738A1, “MICELLE NANOPARTICLES COMPRISING BIOPOLYMER-HEMIN COMPLEX, AND USE THEREOF” (GWANGJU INSTITUTE OF SCIENCE AND TECHNOLOGY, priority 2023, published 2026)

What was measured:
HK-2 cells = assay: Cell viability against ROS (200 μM hydrogen peroxide), Alamar Blue; type: cell-based, human
Method: HK-2 cells were treated with 200 μM hydrogen peroxide and various concentrations of the biopolymer-hemin complexes. After 24 hours of incubation, cell viability was evaluated using the Alamar Blue assay.
It was confirmed that the biopolymer-hemin complex removes ROS such as hydrogen peroxide and protects cells from oxidative stress (FIG. 4D). The ROS protective effect of the biopolymer-hemin complex was assayed in HK-2 cells with hydrogen peroxide. Various concentrations of hemin and biopolymer-hemin complexes with the same amount of hemin were added to cells treated with hydrogen peroxide (200 μM). The survival rate of cells was improved by increasing the concentration of the biopolymer-hemin complex or hemin.

[1] = test system: AKI mouse model established using glycerol; assay: Serum analysis (BUN, creatinine) of AKI mice; type: in vivo, ICR mice; settings: 10 mg/kg intravenous, 24 hours, compared to AKI mice
Method: (§1) All animal experiments were performed in accordance with the Gwangju Institute of Science and Technology Animal Care Committee guidelines (GIST-2021-095). Six-week-old ICR mice (30 g) were used, with free access to food and water. To establish an acute kidney injury (AKI) model, water was restricted for 18 hours. Next, 50% glycerol solution (8 mL/kg) was injected intramuscularly into both hind limbs of each mouse.
(§2) After establishing the AKI model, 10 mg/kg of hemin and biopolymer-hemin complex was injected intravenously. Twenty-four hours later, blood was collected for serum urea nitrogen (BUN) and creatinine analysis. Kidneys and other major organs (heart, liver, spleen, and lungs) were also collected for further histological analysis. 1-10. Histological analysis

[2] = test system: AKI mouse model established using glycerol; assay: Histological analysis of kidneys of AKI mice (H&E, DHE, KIM-1, MAC387); type: in vivo, ICR mice
Method: as §1, §2
The kidneys of each group were fixed with 4% formaldehyde, embedded in paraffin, and cut into 5 μm thick sections. H&E staining and TUNEL analysis of kidney sections were performed according to the manufacturer's protocol. For immunostaining of kidney injury molecule-1 (KIM-1) and MAC387, sections were treated with 100-fold diluted KIM-1 and MAC primary antibodies, and 200-fold diluted anti-rabbit IgG (Alexa Fluor 594) and anti-mouse IgG (Alexa Fluor 488) were each used as a secondary antibody. […] Images were analyzed quantitatively using ImageJ software. […]

Substance: Hemin
- cytoprotective effect against hydrogen peroxide, overall (HK-2 cells; HK-2, 200 μM hydrogen peroxide): no significant difference observed between CS-H and hemin
- cell viability against hydrogen peroxide (HK-2 cells; hemin concentration 1 μM, 200 μM hydrogen peroxide): no protective effect at all
- protective effect against hydrogen peroxide (HK-2 cells; hemin concentration 5 and 25 μM, 200 μM hydrogen peroxide): improved protective effects
- serum BUN level [1]: did not induce significant changes
- serum creatinine level [1]: did not induce significant changes
- kidney ROS levels (DHE staining) ([2]; AKI mice (FIG. 6D, 6F)): not effective in reducing ROS levels
- macrophage signal (MAC387 immunostaining) ([2]; AKI mice kidney): strong macrophage signals
